Our source for the MIC values is US7868135B2, “Compositions of lipopeptide antibiotic derivatives and methods of use thereof” (priority 2003, dated 2011).

Starred links: 1 amine or outer side, 2 acyl side, 3 side chain; linkers in the order of their positions; H or OH if unused. Positions of bridges follow the written chain, without caps; N, C: chain ends. Non-standard residues stand in square brackets, D forms with d. Residues, ends and D or L forms follow the SMILES beside them. ξ: configuration not given here. *: point of attachment. X14 = CC(NC(=O)[C@@H](N)CNC(=O)CCN)C(N[*:1])C(=O)[*:2]; X11 = CC(NC(=O)CC1CC2CCC1C2)C(N[*:1])C(=O)[*:2]; X15 = CC(NC(=O)CCNC(N)=O)C(N[*:1])C(=O)[*:2]; ξAbu(βξ-NH2) = CC(N[*:3])C(N[*:1])C(=O)[*:2]; X41 = CC(NC(=O)C1CCCCC1)C(N[*:1])C(=O)[*:2]; X16 = CCC(=O)C(=O)NC(C)C(N[*:1])C(=O)[*:2]; X24 = C/C=C/C(=O)NC(C)C(N[*:1])C(=O)[*:2]; X39 = C=CC(=O)NC(C)C(N[*:1])C(=O)[*:2]; Pentadecanoyl = CCCCCCCCCCCCCCC(=O)*; ξAsp(βξ-Me) = CC(C(=O)O)C(N)C(=O)O; Pip = O=C(O)[CH]1CCCCN1; ξD = NC(CC(=O)O)C(=O)O; ξPip = O=C(O)C1CCCCN1; ξV = CC(C)C(N)C(=O)O; ξP = O=C(O)C1CCCN1

The first test has as its system Staphylococcus aureus (MSSA). The note with it: 24 h. An outline of the steps: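 Broth microdilution MIC per NCCLS M7-A6 with doubling serial dilutions, in cation-adjusted Mueller-Hinton broth supplemented with 0.625 mM calcium.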
The term MIC denotes the lowest concentration found to suppress growth. Consider `CCCCCCCCCCCCCCC(=O)NC(CC(=O)O)C(=O)NC1C(=O)N2CCCCC2C(=O)NC(C(C)C(=O)O)C(=O)NC(CC(=O)O)C(=O)NCC(=O)NC(CC(=O)O)C(=O)NCC(=O)NC(C(C)NC(=O)CCNC(=O)[C@@H](N)C(C)C)C(=O)NC(C(C)C)C(=O)N2CCCC2C(=O)NC1C` (stereo partly drawn) [Compound 174, C15-Amphomycin-9-(β-Ala)-Val], for which the MIC was 2 µg/mL.

For the molecule `CCCCCCCCCCCCCCC(=O)NC(CC(=O)O)C(=O)NC1C(=O)N2CCCCC2C(=O)NC(C(C)C(=O)O)C(=O)NC(CC(=O)O)C(=O)NCC(=O)NC(CC(=O)O)C(=O)NCC(=O)NC(C(C)NC(=O)CCCCNC(=O)CCN)C(=O)NC(C(C)C)C(=O)N2CCCC2C(=O)NC1C` (stereo not drawn) [Compound 176, C15-Amphomycin-9-(5-Ava)-(β-Ala)], the minimal inhibitory concentration (MIC) was 4 µg/mL.

For the molecule `CCCCCCCCCCCCCCC(=O)NC(CC(=O)O)C(=O)NC1C(=O)N2CCCCC2C(=O)NC(C(C)C(=O)O)C(=O)NC(CC(=O)O)C(=O)NCC(=O)NC(CC(=O)O)C(=O)NCC(=O)NC(C(C)NC(=O)CNC(=O)[C@H](CCCCN)NC(=O)CN)C(=O)NC(C(C)C)C(=O)N2CCCC2C(=O)NC1C` (stereo partly drawn) [Compound 190, C15-Amphomycin-9-Gly-Lys-Gly], the MIC stood at 1 µg/mL.

Consider `CCCCCCCCCCCCCCC(=O)NC(CC(=O)O)C(=O)NC1C(=O)N2CCCCC2C(=O)NC(C(C)C(=O)O)C(=O)NC(CC(=O)O)C(=O)NCC(=O)NC(CC(=O)O)C(=O)NCC(=O)NC(C(C)NC(=O)CNC(=O)[C@H](CCCCN)NC(=O)[C@@H](N)CCCCN)C(=O)NC(C(C)C)C(=O)N2CCCC2C(=O)NC1C` (stereo partly drawn) [Compound 191, C15-Amphomycin-9-Gly-Lys-Lys], for which the MIC is 8 µg/mL.

With `CCCCCCCCCCCCCCC(=O)NC(CC(=O)O)C(=O)NC1C(=O)N2CCCCC2C(=O)NC(C(C)C(=O)O)C(=O)NC(CC(=O)O)C(=O)NCC(=O)NC(CC(=O)O)C(=O)NCC(=O)NC(C(C)NC(=O)CNC(=O)CNC(=O)[C@@H](N)CCCCN)C(=O)NC(C(C)C)C(=O)N2CCCC2C(=O)NC1C` (stereo partly drawn) [Compound 192, C15-Amphomycin-9-Gly-Gly-Lys], the minimum inhibitory concentration (MIC) lay within 0.5 to 1 µg/mL.

Turning to `CCCCCCCCCCCCCCC(=O)NC(CC(=O)O)C(=O)NC1C(=O)N2CCCCC2C(=O)NC(C(C)C(=O)O)C(=O)NC(CC(=O)O)C(=O)NCC(=O)NC(CC(=O)O)C(=O)NCC(=O)NC(C(C)NC(=O)[C@H](CCCCN)NC(=O)CN)C(=O)NC(C(C)C)C(=O)N2CCCC2C(=O)NC1C` (stereo partly shown) [Compound 193, C15-Amphomycin-9-Lys-Gly], the MIC was in the range of 4 to 8 µg/mL.

Turning to `CCCCCCCCCCCCCCC(=O)NC(CC(=O)O)C(=O)NC1C(=O)N2CCCCC2C(=O)NC(C(C)C(=O)O)C(=O)NC(CC(=O)O)C(=O)NCC(=O)NC(CC(=O)O)C(=O)NCC(=O)NC(C(C)NC(=O)[C@H](CCCCN)NC(=O)[C@@H](N)CCCCN)C(=O)NC(C(C)C)C(=O)N2CCCC2C(=O)NC1C` (stereo partly shown) [Compound 194, C15-Amphomycin-9-Lys-Lys], the MIC was found to be 2 µg/mL.

Regarding `CCCCCCCCCCCCCCC(=O)NC(CC(=O)O)C(=O)NC1C(=O)N2CCCCC2C(=O)NC(C(C)C(=O)O)C(=O)NC(CC(=O)O)C(=O)NCC(=O)NC(CC(=O)O)C(=O)NCC(=O)NC(C(C)NC(=O)[C@H](CCCCN)NC(=O)[C@H](CCCCN)NC(=O)[C@@H](N)CCCCN)C(=O)NC(C(C)C)C(=O)N2CCCC2C(=O)NC1C` (stereo partly drawn) [Compound 195, C15-Amphomycin-9-Lys-Lys-Lys], the MIC was found to be 4 µg/mL.

On to `CCCCCCCCCCCCCCC(=O)NC(CC(=O)O)C(=O)NC1C(=O)N2CCCCC2C(=O)NC(C(C)C(=O)O)C(=O)NC(CC(=O)O)C(=O)NCC(=O)NC(CC(=O)O)C(=O)NCC(=O)NC(C(C)NC(=O)CNC(=O)CCCCCN)C(=O)NC(C(C)C)C(=O)N2CCCC2C(=O)NC1C` (stereo not shown) [Compound 197, C15-Amphomycin-9-Gly-Ahx], for which the MIC lay within 0.25 to 0.5 µg/mL.

`CCCCCCCCCCCCCCC(=O)NC(CC(=O)O)C(=O)NC1C(=O)N2CCCCC2C(=O)NC(C(C)C(=O)O)C(=O)NC(CC(=O)O)C(=O)NCC(=O)NC(CC(=O)O)C(=O)NCC(=O)NC(C(C)NC(=O)CN(C)C(=O)CCCCCN)C(=O)NC(C(C)C)C(=O)N2CCCC2C(=O)NC1C` (stereo not shown) [Compound 198, C15-Amphomycin-9-Sar-Ahx]: the MIC came out at 4 µg/mL.

As to `CCCCCCCCCCCCCCC(=O)NC(CC(=O)O)C(=O)NC1C(=O)N2CCCCC2C(=O)NC(C(C)C(=O)O)C(=O)NC(CC(=O)O)C(=O)NCC(=O)NC(CC(=O)O)C(=O)NCC(=O)NC(C(C)NC(=O)[C@@H](N)CNC(=O)CCN)C(=O)NC(C(C)C)C(=O)N2CCCC2C(=O)NC1C` (stereo partly drawn) [Compound 200, C15-Amphomycin-9-Dap-(β-N-(β-Ala))] (Pentadecanoyl-[ξD][ξAbu(βξ-NH2)][ξPip][ξAsp(βξ-Me)][ξD]G[ξD]G[X14][ξV][ξP]; lactam 2-C), the MIC was 1 µg/mL.

Take `CCCCCCCCCCCCCCC(=O)NC(CC(=O)O)C(=O)NC1C(=O)N2CCCCC2C(=O)NC(C(C)C(=O)O)C(=O)NC(CC(=O)O)C(=O)NCC(=O)NC(CC(=O)O)C(=O)NCC(=O)NC(C(C)NC(=O)CCCCC)C(=O)NC(C(C)C)C(=O)N2CCCC2C(=O)NC1C` (stereo not shown) [Compound 201, C15-Amphomycin-9-C6]: the minimum inhibitory concentration (MIC) came out at 32 µg/mL.

Take `CCCCCCCCCCCCCCC(=O)NC(CC(=O)O)C(=O)NC1C(=O)N2CCCCC2C(=O)NC(C(C)C(=O)O)C(=O)NC(CC(=O)O)C(=O)NCC(=O)NC(CC(=O)O)C(=O)NCC(=O)NC(C(C)NC(=O)CCCCCCC)C(=O)NC(C(C)C)C(=O)N2CCCC2C(=O)NC1C` (stereo not shown) [Compound 205, C15-Amphomycin-9-C8]: the MIC is 16 µg/mL.

On to `CCCCCCCCCCCCCCC(=O)NC(CC(=O)O)C(=O)NC1C(=O)N2CCCCC2C(=O)NC(C(C)C(=O)O)C(=O)NC(CC(=O)O)C(=O)NCC(=O)NC(CC(=O)O)C(=O)NCC(=O)NC(C(C)NC(=O)C2CCCCC2)C(=O)NC(C(C)C)C(=O)N2CCCC2C(=O)NC1C` (stereo not drawn) [Compound 206, C15-Amphomycin-9-cHexyl] (Pentadecanoyl-D[ξAbu(βξ-NH2)][Pip][ξAsp(βξ-Me)]DGDG[X41]VP; lactam 2-C; configuration not given here), for which the MIC came to 8 µg/mL.

In the case of `CCCCCCCCCCCCCCC(=O)NC(CC(=O)O)C(=O)NC1C(=O)N2CCCCC2C(=O)NC(C(C)C(=O)O)C(=O)NC(CC(=O)O)C(=O)NCC(=O)NC(CC(=O)O)C(=O)NCC(=O)NC(C(C)NC(=O)CCC)C(=O)NC(C(C)C)C(=O)N2CCCC2C(=O)NC1C` (stereo not shown) [Compound 207, C15-Amphomycin-9-C4], the MIC was determined as 16 µg/mL.

`CCCCCCCCCCCCCCC(=O)NC(CC(=O)O)C(=O)NC1C(=O)N2CCCCC2C(=O)NC(C(C)C(=O)O)C(=O)NC(CC(=O)O)C(=O)NCC(=O)NC(CC(=O)O)C(=O)NCC(=O)NC(C(C)NC(=O)CC2CC3CCC2C3)C(=O)NC(C(C)C)C(=O)N2CCCC2C(=O)NC1C` (stereo not drawn) [Compound 208, C15-Amphomycin-9-(2-Norbornaneacetyl)] (Pentadecanoyl-D[ξAbu(βξ-NH2)][Pip][ξAsp(βξ-Me)]DGDG[X11]VP; lactam 2-C; configuration not given here): the minimum inhibitory concentration (MIC) was found to be 4 µg/mL.

With `CCCCCCCCCCCCCCC(=O)NC(CC(=O)O)C(=O)NC1C(=O)N2CCCCC2C(=O)NC(C(C)C(=O)O)C(=O)NC(CC(=O)O)C(=O)NCC(=O)NC(CC(=O)O)C(=O)NCC(=O)NC(C(C)NC(=O)CCNC(N)=O)C(=O)NC(C(C)C)C(=O)N2CCCC2C(=O)NC1C` (stereo not drawn) [Compound 212, C15-Amphomycin-9-(Carbamoyl-β-Ala)] (Pentadecanoyl-D[ξAbu(βξ-NH2)][Pip][ξAsp(βξ-Me)]DGDG[X15]VP; lactam 2-C; configuration not given here), the minimum inhibitory concentration (MIC) turned out to be 1 µg/mL.

As for `C=CC(=O)NC(C)C1NC(=O)CNC(=O)C(CC(=O)O)NC(=O)CNC(=O)C(CC(=O)O)NC(=O)C(C(C)C(=O)O)NC(=O)C2CCCCN2C(=O)C(NC(=O)C(CC(=O)O)NC(=O)CCCCCCCCCCCCCC)C(C)NC(=O)C2CCCN2C(=O)C(C(C)C)NC1=O` (stereo not drawn) [Compound 213, C15-Amphomycin-9-Acryl] (Pentadecanoyl-D[ξAbu(βξ-NH2)][Pip][ξAsp(βξ-Me)]DGDG[X39]VP; lactam 2-C; configuration not given here), the MIC is 2 µg/mL.

Regarding `C/C=C/C(=O)NC(C)C1NC(=O)CNC(=O)C(CC(=O)O)NC(=O)CNC(=O)C(CC(=O)O)NC(=O)C(C(C)C(=O)O)NC(=O)C2CCCCN2C(=O)C(NC(=O)C(CC(=O)O)NC(=O)CCCCCCCCCCCCCC)C(C)NC(=O)C2CCCN2C(=O)C(C(C)C)NC1=O` (stereo not drawn) [Compound 218, C15-Amphomycin-9-Crotonyl] (Pentadecanoyl-D[ξAbu(βξ-NH2)][Pip][ξAsp(βξ-Me)]DGDG[X24]VP; lactam 2-C; configuration not given here), the minimum inhibitory concentration (MIC) amounted to 8 µg/mL.

For `CCCCCCCCCCCCCCC(=O)NC(CC(=O)O)C(=O)NC1C(=O)N2CCCCC2C(=O)NC(C(C)C(=O)O)C(=O)NC(CC(=O)O)C(=O)NCC(=O)NC(CC(=O)O)C(=O)NCC(=O)NC(C(C)NC(=O)CCCCCCCCC)C(=O)NC(C(C)C)C(=O)N2CCCC2C(=O)NC1C` (stereo not shown) [Compound 220, C15-Amphomycin-9-C10], the minimal inhibitory concentration (MIC) worked out at 2 µg/mL.

For the molecule `CCCCCCCCCCCCCCC(=O)NC(CC(=O)O)C(=O)NC1C(=O)N2CCCCC2C(=O)NC(C(C)C(=O)O)C(=O)NC(CC(=O)O)C(=O)NCC(=O)NC(CC(=O)O)C(=O)NCC(=O)NC(C(C)NC(=O)C(=O)CC)C(=O)NC(C(C)C)C(=O)N2CCCC2C(=O)NC1C` (stereo not drawn) [Compound 223, C15-Amphomycin-9-(α-Ketobutyl)] (Pentadecanoyl-D[ξAbu(βξ-NH2)][Pip][ξAsp(βξ-Me)]DGDG[X16]VP; lactam 2-C; configuration not given here), the MIC turned out to be 16 µg/mL.

The same test, now with this note: S. aureus (MSSA), CAMHB supplemented with 0.625 mM calcium, 24 hours at about 37° C.; a range = compound tested multiple times.
Consider `CCCCCCCCCCCCCCC(=O)NC(CC(=O)O)C(=O)NC1C(=O)N2CCCCC2C(=O)NC(C(C)C(=O)O)C(=O)NC(CC(=O)O)C(=O)NCC(=O)NC(CC(=O)O)C(=O)NCC(=O)NC(C(C)NC(=O)[C@@H]2CCC(=O)O2)C(=O)NC(C(C)C)C(=O)N2CCCC2C(=O)NC1C` (stereo partly drawn) [Compound 210, C15-Amphomycin-9-((S)-(+)-5-Oxo-2-Tetrahydrofurancarbonyl)], for which the MIC is 2 µg/mL.
